# Several values for one entry are separate records, joined by “and”; a condition that tells them apart may be missing. Equal values may be shown once.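 Dose response: 5 concentrations. Exposure: 48 h. Format: 96-well plates. Endpoint: linear interpolation; highest concentration if not reached. GI50 = concentration required for 50% inhibition of growth. TGI: total growth inhibition.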
# Columns and labels:
# Test in all cases: NCI-60 cell line screen, 48 h
# 786-0 renal = test system: 786-0 renal
# A498 renal = test system: A498 renal
# A549 NSCLC = test system: A549 NSCLC
# ACHN renal = test system: ACHN renal
# BT-549 breast = test system: BT-549 breast
# CAKI-1 renal = test system: CAKI-1 renal
# CCRF-CEM leukemia = test system: CCRF-CEM leukemia
# COLO 205 colon = test system: COLO 205 colon
# DU-145 prostate = test system: DU-145 prostate
# EKVX NSCLC = test system: EKVX NSCLC
# HCC-2998 colon = test system: HCC-2998 colon
# HCT-116 colon = test system: HCT-116 colon
# HCT-15 colon = test system: HCT-15 colon
# HL-60(TB) leukemia = test system: HL-60(TB) leukemia
# HOP-62 NSCLC = test system: HOP-62 NSCLC
# HOP-92 NSCLC = test system: HOP-92 NSCLC
# HS 578T breast = test system: HS 578T breast
# HT29 colon = test system: HT29 colon
# IGROV1 ovarian = test system: IGROV1 ovarian
# K-562 leukemia = test system: K-562 leukemia
# KM12 colon = test system: KM12 colon
# LOX IMVI melanoma = test system: LOX IMVI melanoma
# M14 melanoma = test system: M14 melanoma
# MALME-3M melanoma = test system: MALME-3M melanoma
# MCF7 breast = test system: MCF7 breast
# MDA-MB-231 breast = test system: MDA-MB-231 breast
# MDA-MB-435 = test system: MDA-MB-435
# MOLT-4 leukemia = test system: MOLT-4 leukemia
# NCI-H226 lung = test system: NCI-H226 lung
# NCI-H23 lung = test system: NCI-H23 lung
# NCI-H460 lung = test system: NCI-H460 lung
# NCI-H522 lung = test system: NCI-H522 lung
# NCI/ADR-RES ovarian = test system: NCI/ADR-RES ovarian
# OVCAR-3 ovarian = test system: OVCAR-3 ovarian
# OVCAR-4 ovarian = test system: OVCAR-4 ovarian
# OVCAR-5 ovarian = test system: OVCAR-5 ovarian
# OVCAR-8 ovarian = test system: OVCAR-8 ovarian
# PC-3 prostate = test system: PC-3 prostate
# RPMI-8226 leukemia = test system: RPMI-8226 leukemia
# RXF 393 renal = test system: RXF 393 renal
# SF-268 CNS = test system: SF-268 CNS
# SF-295 CNS = test system: SF-295 CNS
# SF-539 CNS = test system: SF-539 CNS
# SK-MEL-2 melanoma = test system: SK-MEL-2 melanoma
# SK-MEL-28 melanoma = test system: SK-MEL-28 melanoma
# SK-MEL-5 melanoma = test system: SK-MEL-5 melanoma
# SK-OV-3 ovarian = test system: SK-OV-3 ovarian
# SN12C renal = test system: SN12C renal
# SNB-19 CNS = test system: SNB-19 CNS
# SNB-75 CNS = test system: SNB-75 CNS
# SR leukemia = test system: SR leukemia
# SW-620 colon = test system: SW-620 colon
# T-47D breast = test system: T-47D breast
# TK-10 renal = test system: TK-10 renal
# U251 CNS = test system: U251 CNS
# UACC-257 melanoma = test system: UACC-257 melanoma
# UACC-62 melanoma = test system: UACC-62 melanoma
# UO-31 renal = test system: UO-31 renal
structure (smiles),measurement,setting,value
COc1cc(CCc2cc(NC(=O)c3ccc(N4C[C@@H](C)N[C@@H](C)C4)cc3)n[nH]2)cc(OC)c1,GI50,786-0 renal,> 10 µM and 6.16 µM
same,TGI,786-0 renal,> 10 µM and 20.4 µM
same,GI50,A498 renal,0.014 µM and < 0.0107 µM
same,TGI,A498 renal,0.0838 µM and 0.12 µM
same,GI50,A549 NSCLC,> 10 µM and 3.9 µM
same,TGI,A549 NSCLC,> 10 µM and 15.3 µM
same,GI50,ACHN renal,9.45 µM and 4.41 µM
same,TGI,ACHN renal,> 10 µM and 15.3 µM
same,GI50,BT-549 breast,5.58 µM and 1.08 µM
same,TGI,BT-549 breast,> 10 µM and 17.2 µM
same,GI50,CAKI-1 renal,> 10 µM and 5.76 µM
same,TGI,CAKI-1 renal,> 10 µM and 21.8 µM
same,GI50,CCRF-CEM leukemia,> 10 µM and 3.69 µM
same,TGI,CCRF-CEM leukemia,> 10 µM and 18.3 µM
same,GI50,COLO 205 colon,3.58 µM and 3.61 µM
same,TGI,COLO 205 colon,> 10 µM and 11.5 µM
same,GI50,DU-145 prostate,7.62 µM and 6.09 µM
same,TGI,DU-145 prostate,> 10 µM and 18.5 µM
same,GI50,EKVX NSCLC,> 10 µM
same,TGI,EKVX NSCLC,> 10 µM
same,GI50,HCC-2998 colon,> 10 µM and 6.77 µM
same,TGI,HCC-2998 colon,> 10 µM and 19.5 µM
same,GI50,HCT-116 colon,3.79 µM and 3.49 µM
same,TGI,HCT-116 colon,> 10 µM and 13.1 µM
same,GI50,HCT-15 colon,> 10 µM and 9.71 µM
same,TGI,HCT-15 colon,> 10 µM and 23.6 µM
same,GI50,HL-60(TB) leukemia,2.47 µM and 4.15 µM
same,TGI,HL-60(TB) leukemia,> 10 µM and 14.9 µM
same,GI50,HOP-62 NSCLC,> 10 µM and 7.2 µM
same,TGI,HOP-62 NSCLC,> 10 µM and 20.3 µM
same,GI50,HOP-92 NSCLC,1.95 µM and 1.96 µM
same,TGI,HOP-92 NSCLC,> 10 µM and 12.8 µM
same,GI50,HS 578T breast,1.12 µM and 2.44 µM
same,TGI,HS 578T breast,> 10 µM and 14.4 µM
same,GI50,HT29 colon,3.86 µM and 3.33 µM
same,TGI,HT29 colon,> 10 µM and 13.3 µM
same,GI50,IGROV1 ovarian,2.93 µM and 4.59 µM
same,TGI,IGROV1 ovarian,> 10 µM and 19.8 µM
same,GI50,K-562 leukemia,6.89 µM and 4.18 µM
same,TGI,K-562 leukemia,> 10 µM and 15.8 µM
same,GI50,KM12 colon,0.0759 µM and 0.107 µM
same,TGI,KM12 colon,> 10 µM and 11 µM
same,GI50,LOX IMVI melanoma,2.93 µM and 2.66 µM
same,TGI,LOX IMVI melanoma,> 10 µM and 10.3 µM
same,GI50,M14 melanoma,7.13 µM and 2.77 µM
same,TGI,M14 melanoma,> 10 µM and 10.9 µM
same,GI50,MALME-3M melanoma,8.58 µM and 5.25 µM
same,TGI,MALME-3M melanoma,> 10 µM and 19.9 µM
same,GI50,MCF7 breast,3.29 µM and 2.85 µM
same,TGI,MCF7 breast,> 10 µM and 15.8 µM
same,GI50,MDA-MB-231 breast,> 10 µM and 5.81 µM
same,TGI,MDA-MB-231 breast,> 10 µM and 19.7 µM
same,GI50,MDA-MB-435,6.15 µM and 3.48 µM
same,TGI,MDA-MB-435,> 10 µM and 14.2 µM
same,GI50,MOLT-4 leukemia,4.38 µM and 3.69 µM
same,TGI,MOLT-4 leukemia,> 10 µM and 13.2 µM
same,TGI,NCI-H226 lung,> 10 µM and 21.3 µM
same,GI50,NCI-H23 lung,> 10 µM and 3.98 µM
same,TGI,NCI-H23 lung,> 10 µM and 17.3 µM
same,GI50,NCI-H460 lung,6.39 µM and 4.16 µM
same,TGI,NCI-H460 lung,> 10 µM and 14.8 µM
same,GI50,NCI-H522 lung,> 10 µM and 9.95 µM
same,TGI,NCI-H522 lung,> 10 µM and 24.5 µM
same,GI50,NCI/ADR-RES ovarian,> 10 µM and 17.1 µM
same,TGI,NCI/ADR-RES ovarian,> 10 µM and 36.8 µM
same,GI50,OVCAR-3 ovarian,> 10 µM and 15.7 µM
same,TGI,OVCAR-3 ovarian,> 10 µM and 30 µM
same,GI50,OVCAR-4 ovarian,> 10 µM and 3.73 µM
same,TGI,OVCAR-4 ovarian,> 10 µM and 18.5 µM
same,GI50,OVCAR-5 ovarian,> 10 µM and 5.01 µM
same,TGI,OVCAR-5 ovarian,> 10 µM and 16.9 µM
same,GI50,OVCAR-8 ovarian,> 10 µM and 9.01 µM
same,TGI,OVCAR-8 ovarian,> 10 µM and 25.7 µM
same,GI50,PC-3 prostate,> 10 µM and 6.92 µM
same,TGI,PC-3 prostate,> 10 µM and 23.9 µM
same,GI50,RPMI-8226 leukemia,4.82 µM and 4.65 µM
same,TGI,RPMI-8226 leukemia,> 10 µM and 19.6 µM
same,TGI,RXF 393 renal,7.97 µM and 9.67 µM
same,GI50,SF-268 CNS,> 10 µM and 5.88 µM
same,TGI,SF-268 CNS,> 10 µM and 20.7 µM
same,GI50,SF-295 CNS,> 10 µM and 6.8 µM
same,TGI,SF-295 CNS,> 10 µM and 21.3 µM
same,GI50,SF-539 CNS,6.6 µM and 4.08 µM
same,TGI,SF-539 CNS,> 10 µM and 15.1 µM
same,GI50,SK-MEL-2 melanoma,4.17 µM and 4.95 µM
same,TGI,SK-MEL-2 melanoma,> 10 µM and 18.2 µM
same,GI50,SK-MEL-28 melanoma,> 10 µM and 7.74 µM
same,TGI,SK-MEL-28 melanoma,> 10 µM and 20.9 µM
same,GI50,SK-MEL-5 melanoma,9.72 µM and 3.83 µM
same,TGI,SK-MEL-5 melanoma,> 10 µM and 12.7 µM
same,GI50,SK-OV-3 ovarian,9.23 µM and 7.04 µM
same,TGI,SK-OV-3 ovarian,> 10 µM and 19.3 µM
same,GI50,SN12C renal,6.39 µM and 3.31 µM
same,TGI,SN12C renal,> 10 µM and 15.7 µM
same,GI50,SNB-19 CNS,> 10 µM and 14.9 µM
same,TGI,SNB-19 CNS,> 10 µM and 30.8 µM
same,GI50,SNB-75 CNS,1.93 µM and 2.61 µM
same,TGI,SNB-75 CNS,> 10 µM and 11.2 µM
same,GI50,SR leukemia,3.75 µM and 2.34 µM
same,TGI,SR leukemia,> 10 µM and 5.42 µM
same,GI50,SW-620 colon,6.49 µM and 3.5 µM
same,TGI,SW-620 colon,> 10 µM and 15.6 µM
same,GI50,T-47D breast,> 10 µM and 15.3 µM
same,TGI,T-47D breast,> 10 µM and 31.6 µM
same,GI50,TK-10 renal,> 10 µM and 10.4 µM
same,TGI,TK-10 renal,> 10 µM and 23.6 µM
same,GI50,U251 CNS,> 10 µM and 3.86 µM
same,TGI,U251 CNS,> 10 µM and 18 µM
same,GI50,UACC-257 melanoma,> 10 µM and 2.08 µM
same,TGI,UACC-257 melanoma,> 10 µM and 5.31 µM
same,GI50,UACC-62 melanoma,> 10 µM and 6.82 µM
same,TGI,UACC-62 melanoma,> 10 µM and 21.2 µM
same,GI50,UO-31 renal,2.84 µM and 2.7 µM
same,TGI,UO-31 renal,> 10 µM and 13.9 µM

# — PubChem BioAssay (NCI)
